Measured values reported in ChEMBL document CHEMBL3608220, “Isolation and structure elucidation of bioactive compounds from the roots of the Tunisian Ononis angustissima L” (Bioorg Med Chem Lett, 2015).
In brackets after ≈: the same amount, converted by molar mass. Activity calls are given as the source filed them. The calls are words filed in the database; no cut-off is given here.

Key:
[1] = Antioxidant activity assessed as DPPH radical scavenging activity after 30 mins; assay type: physicochemical
[2] = Antioxidant activity assessed as ABTS radical scavenging activity after 6 mins; assay type: physicochemical
[3] = Antioxidant activity assessed as reduction of Fe3+ to Fe2+ after 20 mins; assay type: physicochemical
[4] = Cytotoxicity against rat PC12 cells assessed as cell viability at 30 uM after 24 hrs by MTT assay; assay type: cell-based; conditions: pc-12, 24 h
[5] = Cytotoxicity against rat PC12 cells assessed as cell viability at 75 uM after 24 hrs by MTT assay relative to control; assay type: cell-based; conditions: pc-12, 24 h
[6] = Cytotoxicity against rat PC12 cells assessed as cell viability at 150 uM after 24 hrs by MTT assay relative to control; assay type: cell-based; conditions: pc-12, 24 h
[7] = tested on: PC-12; test: (§1) Neuroprotective activity against amyloid beta (25 to 35)-induced toxicity in rat PC12 cells assessed as increase in cell viability at 30 uM after 24 hrs by MTT assay relative to control; assay type: functional
[8] = tested on: PC-12; test: (§2) Neuroprotective activity against amyloid beta (25 to 35)-induced toxicity in rat PC12 cells assessed as increase in cell viability at 75 uM after 24 hrs by MTT assay relative to control; assay type: functional
[9] = as §1; assay type: functional, PC-12
[10] = as §2; assay type: functional, PC-12
[11] = tested on: PC-12; test: Neuroprotective activity against amyloid beta (25 to 35)-induced toxicity in rat PC12 cells assessed as increase in cell viability after 24 hrs by MTT assay; assay type: functional, cell-based

Row | SMILES | IC50 [1] [µg/mL] | IC50 [2] [µg/mL] | IC50 [3] [µg/mL] | Activity [4] | Activity [5] | Activity [6] | Activity [7] | Activity [8] | Activity [9] [%] | Activity [10] [%] | Activity [11]
1 | O=C1C=C(c2ccc(O)cc2O[C@@H]2O[C@H](CO)[C@@H](O)[C@H](O)[C@H]2O)C(Cc2ccc(O)cc2)O1 (some centres undefined) | 21.43 (≈ 46.5 µM) | 46.72 (≈ 101 µM) | 39.81 (≈ 86.5 µM) | Non-toxic | Non-toxic | Toxic | inactive | inactive |  |  | 
2 | COc1ccc(C2=CC(=O)OC2Cc2ccc(O)cc2)c(O[C@@H]2O[C@H](CO)[C@@H](O)[C@H](O)[C@H]2O)c1 (some centres undefined) | 25.67 (≈ 54.1 µM) | 61.39 (≈ 129 µM) | 46.93 (≈ 98.9 µM) | Non-toxic | Toxic | Toxic | inactive |  |  |  | 
3 | COc1ccc(-c2coc3cc(O[C@@H]4O[C@H](CO)[C@@H](O)[C@H](O)[C@H]4O)ccc3c2=O)cc1 [ONONIN] | 34.17 (≈ 79.4 µM) | 71.3 (≈ 166 µM) | 57.21 (≈ 133 µM) |  |  |  |  |  |  |  | 
4 | OC[C@H]1O[C@@H](Oc2ccc3c(c2)OCC2c4cc5c(cc4OC32)OCO5)[C@H](O)[C@@H](O)[C@@H]1O (some centres undefined) | 28.06 (≈ 62.9 µM) | 63.21 (≈ 142 µM) | 70.37 (≈ 158 µM) | Non-toxic | Toxic | Toxic | inactive |  |  |  | 
5 | COc1ccc(-c2coc3cc(O)ccc3c2=O)cc1 [FORMONONETIN] | 43.51 (≈ 162 µM) | 77.42 (≈ 289 µM) | 62.57 (≈ 233 µM) |  |  |  |  |  |  |  | 
6 | Oc1ccc2c(c1)OC[C@H]1c3cc4c(cc3O[C@@H]21)OCO4 [MAACKIAIN] | 24.48 (≈ 86.1 µM) |  |  | Non-toxic | Non-toxic | Toxic |  |  | 5 | 15 | Dose-dependent effect
7 | COc1cc(O[C@@H]2O[C@H](CO)[C@@H](O)[C@H](O)[C@H]2O)c(O)cc1-c1coc2cc(O)ccc2c1=O | 20.45 (≈ 44.2 µM) |  |  |  |  |  |  |  |  |  | 
8 | COc1ccc2c(c1)O[C@H]1c3ccc(O)cc3OC[C@@H]21 | 45.91 (≈ 170 µM) | 86.29 (≈ 319 µM) | 82.37 (≈ 305 µM) | Non-toxic | Non-toxic | Toxic |  |  | 18 | 30 | Dose-dependent effect
9 | Cc1cc(C(C)(C)C)c(O)c(C(C)(C)C)c1 [BUTYLATED HYDROXYTOLUENE] | 9.23 (≈ 41.9 µM) |  | 41.64 (≈ 189 µM) |  |  |  |  |  |  |  | 
10 | O=C(O)CC(=O)OC[C@H]1O[C@@H](Oc2ccc3c(c2)OCC2c4cc5c(cc4OC32)OCO5)[C@H](O)[C@@H](O)[C@@H]1O (some centres undefined) | 25.93 (≈ 48.7 µM) | 60.64 (≈ 114 µM) | 64.31 (≈ 121 µM) |  |  |  |  |  |  |  | 
11 | O=C1C=C(c2ccc(O)cc2O)C(Cc2ccc(O)cc2)O1 (centres undefined) | 19.53 (≈ 65.5 µM) | 28.29 (≈ 94.8 µM) | 38.52 (≈ 129 µM) | Non-toxic | Toxic | Toxic | inactive |  |  |  | 
12 | O=c1c(O)c(-c2ccc(O)c(O)c2)oc2cc(O)cc(O)c12 [QUERCETIN] | 4.89 (≈ 16.2 µM) | 6.94 (≈ 23 µM) |  |  |  |  |  |  |  |  | 
